The values that follow come from patent publication US20250195521A1 (Revolution Medicines, Inc., priority 2020, published 2025).

Common to all, as to format: biochemical
Test [1] has as its target KRAS G12S binding to BRAF RBD (Homo sapiens (Human), UniProt P01116+P62937, G12S). The test is described as follows: Ras-Raf disruption/FRET/MOA assay, KRAS G12S. An outline of the steps:
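TR-FRET ratio drop relative to DMSO wells marks disruption of the Ras–RAF complex, reported as IC50. Compounds promote a Ras(nucleotide)–cyclophilin A ternary complex that blocks BRAF RBD binding; dosing was 10 points, 3-fold, top 30 μM final, 3 h at 25° C before detection.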

Test [2] addresses KRAS WT binding to BRAF RBD (Homo sapiens (Human), UniProt P01116+P62937). The test is described as follows: Ras-Raf disruption/FRET/MOA assay, KRAS WT. An outline of the steps:
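Compounds (top 30 μM, 3-fold, 10 points) promote Cyclophilin A (25 μM) ternary complex with His6-Ras-GMPPNP (12.5 nM), disrupting GST-BRAF RBD (50 nM) binding; 3 h, 25°C, 25 mM HEPES pH 7.3, 100 mM NaCl, 5 mM MgCl2. Detection reagents (Eu anti-His 10 nM, APC anti-GST 50 nM) added for 1.5 h; IC50 reported.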

The target of test [3] is KRAS G12V binding to BRAF RBD (Homo sapiens (Human), UniProt P01116+P62937, G12V). The test is described as follows: Ras-Raf disruption/FRET/MOA assay, KRAS G12V. An excerpt: (§1) Note—The following protocol describes a procedure for monitoring disruption of K-Ras G12C(GMP-PNP) binding to BRAF^RBD by a compound of the invention. This protocol may also be executed substituting other Ras proteins or nucleotides.
Sequence of KRAS G12V binding to BRAF RBD (P01116 other isoform, or with tags, fused parts or gaps G12V): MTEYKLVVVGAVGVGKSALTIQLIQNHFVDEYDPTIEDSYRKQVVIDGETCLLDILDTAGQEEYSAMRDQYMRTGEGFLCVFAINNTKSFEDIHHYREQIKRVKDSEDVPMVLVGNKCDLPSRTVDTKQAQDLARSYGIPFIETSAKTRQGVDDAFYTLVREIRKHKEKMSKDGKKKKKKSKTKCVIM
Sequence of KRAS G12V binding to BRAF RBD (P62937 whole entry, canonical isoform): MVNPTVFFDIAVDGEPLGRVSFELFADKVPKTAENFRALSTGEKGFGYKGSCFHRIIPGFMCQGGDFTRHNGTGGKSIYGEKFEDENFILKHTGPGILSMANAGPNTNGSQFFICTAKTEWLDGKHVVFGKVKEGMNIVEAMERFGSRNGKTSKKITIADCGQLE
(§2) The purpose of this biochemical assay was to measure the ability of test compounds to facilitate ternary complex formation between a nucleotide-loaded K-Ras isoform and Cyclophilin A; the resulting ternary complex disrupts binding to a BRAF^RBD construct, inhibiting K-Ras signaling through a RAF effector. Data is reported as IC50 values.
(§3) Compound was present in plate wells as a 10-point 3-fold dilution series starting at a final concentration of 30 μM. After incubation at 25° C. for 3 hours, a mixture of Anti-His Eu—W1024 and anti-GST allophycocyanin was then added to assay sample wells at final concentrations of 10 nM and 50 nM, respectively, and the reaction incubated for an additional 1.5 hours. […] Compounds that facilitate disruption of a K-Ras: RAF complex were identified as those eliciting a decrease in the TR-FRET ratio relative to DMSO control wells.

Test [4] deals with KRAS G13C binding to BRAF RBD (Homo sapiens (Human), UniProt P01116+P62937, G13C). As to the kind of experiment: Ras-Raf disruption/FRET/MOA assay, KRAS G13C.
Sequence of KRAS G13C binding to BRAF RBD (P01116 other isoform, or with tags, fused parts or gaps G13C): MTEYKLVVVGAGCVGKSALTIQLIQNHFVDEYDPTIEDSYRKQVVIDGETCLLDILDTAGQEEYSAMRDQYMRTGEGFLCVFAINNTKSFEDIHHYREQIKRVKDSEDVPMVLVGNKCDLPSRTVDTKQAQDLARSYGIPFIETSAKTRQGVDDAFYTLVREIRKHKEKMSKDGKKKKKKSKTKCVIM
Sequence of KRAS G13C binding to BRAF RBD (P62937 whole entry, the tested form may be a part): as the sequence (P62937 whole entry, canonical isoform) above
Text: Disruption of B-Raf Ras-binding Domain (BRAF^RBD) Interaction with K-Ras by Compounds of the Invention (also called a FRET assay or an MOA assay)
as §1, §2
as §3, with “In assay buffer containing 25 mM HEPES pH 7.3, 0.002% Tween20, 0.1% BSA, 100 mM NaCl and 5 mM MgCl2, tagless Cyclophilin A, His6-K-Ras-GMPPNP, and GST-BRAF^RBD were combined in a 384-well assay plate at final concentrations of 25 μM, 12.5 nM and 50 nM, respectively. Compound was” for “Compound was”

Each structure is given as a SMILES string. Where two headings read alike, the source gives them in different places.

Sequence of KRAS WT binding to BRAF RBD (P01116 other isoform, or with tags, fused parts or gaps): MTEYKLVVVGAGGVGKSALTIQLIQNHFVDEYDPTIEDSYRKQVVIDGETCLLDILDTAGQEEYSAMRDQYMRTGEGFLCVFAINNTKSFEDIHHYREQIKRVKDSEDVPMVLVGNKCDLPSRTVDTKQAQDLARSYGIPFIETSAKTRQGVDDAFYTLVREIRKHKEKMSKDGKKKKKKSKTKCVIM
Sequence of KRAS WT binding to BRAF RBD (P62937 whole entry): as the sequence (P62937 whole entry, canonical isoform) above
Sequence of KRAS G12S binding to BRAF RBD (P01116 other isoform, or with tags, fused parts or gaps G12S): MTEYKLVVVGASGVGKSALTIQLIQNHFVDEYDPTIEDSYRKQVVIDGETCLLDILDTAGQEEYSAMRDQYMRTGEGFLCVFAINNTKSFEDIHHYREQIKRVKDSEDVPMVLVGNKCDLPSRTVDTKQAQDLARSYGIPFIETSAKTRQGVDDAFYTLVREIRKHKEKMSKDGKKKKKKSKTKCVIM
Sequence of KRAS G12S binding to BRAF RBD (P62937 whole entry): as the sequence (P62937 whole entry, canonical isoform) above

For orientation: IC50 means the concentration that gives 50% inhibition. For the compound `CCn1c(-c2cccnc2[C@H](C)OC)c2c3cc(ccc31)-c1csc(n1)[C@@H](OC)[C@H](NC(=O)[C@H](C(C)C)N(C)C(=O)N(C)C)C(=O)N1CCC[C@H](N1)C(=O)OCC(C)(C)C2` [Compound A598, (2S)—N-((6^3S,3S,4S,Z)-1^1-ethyl-3-methoxy-1^2-(2-((S)-1-methoxyethyl)pyridin-3-yl)-10,10-dimethyl-5,7-dioxo-6^1,6^2,6^3,6^4,6^5,6^6-hexahydro-1^1H-8-oxa-2 (4,2)-thiazola-1 (5,3)-indola-6 (1,3)-pyridazinacycloundecaphane-4-yl)-3-methyl-2-(1,3,3-trimethylureido) butanamide], the IC50 in test [1] and in test [2] was 10 to 100 nM in each case.

In test [2], `CCn1c(-c2cccnc2[C@H](C)OC)c2c3cc(ccc31)-c1csc(n1)C[C@H](NC(=O)[C@H](C(C)C)N(C)C(=O)N1CCO[C@@]3(CCN(C)C3)C1)C(=O)N1CCC[C@H](N1)C(=O)OCC(C)(C)C2` [Compound A436] had an IC50 of 10 to 100 nM.

In the case of `CCn1c(-c2cccnc2[C@H](C)OC)c2c3cc(ccc31)-c1csc(n1)C[C@H](NC(=O)[C@H](C(C)C)N(C)C(=O)N1CC3(CCN(C)C3)C1)C(=O)N1CCC[C@H](N1)C(=O)OCC(C)(C)C2` [Compound A602], the IC50 in test [1], in test [2] and in test [3] (read-out: KRAS G12V FRET IC50) was 10 to 100 nM in each case.

Consider `CCn1c(-c2cccnc2[C@H](C)OC)c2c3cc(ccc31)-c1csc(n1)C[C@H](NC(=O)C1CC1)C(=O)N1CCC[C@H](N1)C(=O)OCC(C)(C)C2` [Compound A367], for which the IC50 in test [1] and in test [2] was 10 to 100 nM each time.

With `CCn1c(-c2cccnc2[C@H](C)OC)c2c3cc(ccc31)-c1csc(n1)C[C@H](NC(=O)[C@H](C(C)C)N(C)C(=O)N1CCN(C(=O)[C@@H]3CCCN3C)CC1)C(=O)N1CCC[C@H](N1)C(=O)OCC(C)(C)C2` [Compound A596], the IC50 in test [1] was in the range of 10 to 100 nM.

With `CCn1c(-c2cccnc2[C@H](C)OC)c2c3cc(ccc31)-c1csc(n1)C[C@H](NC(=O)[C@H](C(C)C)N(C)C(=O)N1CCN3C(=O)CN(C)C[C@H]3C1)C(=O)N1CCC[C@H](N1)C(=O)OCC(C)(C)C2` [Compound A537], the IC50 in test [1], in test [2] and in test [3] (read-out: KRAS G12V FRET IC50) was 10 to 100 nM throughout.

With `CCn1c(-c2cccnc2[C@H](C)OC)c2c3cc(ccc31)-c1cc(O)cc(c1)C[C@H](NC(=O)C1CCC3C1C3(F)F)C(=O)N1CCC[C@H](N1)C(=O)OCC(C)(C)C2` (stereo partly shown) [Compound A181], the IC50 in test [1] was in the range of 10 to 100 nM.

For the compound `CCn1c(-c2cccnc2[C@H](C)OC)c2c3cc(ccc31)-c1cc(O)cc(c1)C[C@H](NC(=O)[C@H](C(C)C)N(C)C(=O)C1CNCCNC1)C(=O)N1CCC[C@H](N1)C(=O)OCC(C)(C)C2` [Compound A432], in test [2], the IC50 lay within 10 to 100 nM.

Take `CCn1c(-c2cccnc2[C@H](C)OC)c2c3cc(ccc31)-c1csc(n1)C[C@H](NC(=O)[C@H](C(C)C)N(C)C(=O)N1CC[C@]3(CCNC3=O)C1)C(=O)N1CCC[C@H](N1)C(=O)OCC(C)(C)C2` [Compound A479]: the IC50 in test [1], in test [2] and in test [3] (read-out: KRAS G12V FRET IC50) was 10 to 100 nM each time.

In test [2], `CCn1c(-c2cccnc2[C@H](C)OC)c2c3cc(ccc31)-c1cc(O)cc(c1)C[C@H](NC(=O)[C@H](C(C)C)N(C)C(=O)[C@H]1CCN(C(=O)[C@@H](C)N(C)C)C1)C(=O)N1CCC[C@H](N1)C(=O)OCC(C)(C)C2` [Compound A386] had an IC50 of 10 to 100 nM.

For the compound `CCn1c(-c2cccnc2[C@H](C)OC)c2c3cc(ccc31)-c1csc(n1)C[C@H](NC(=O)[C@H](C(C)C)N(C)C(=O)N1CCC[C@H](N(C)C)CC1)C(=O)N1CCC[C@H](N1)C(=O)OCC(C)(C)C2` [Compound A493], the IC50 in test [1], in test [2] and in test [3] (read-out: KRAS G12V FRET IC50) was 10 to 100 nM each time.

Regarding `CCn1c(-c2cccnc2[C@H](C)OC)c2c3cc(ccc31)-c1csc(n1)C[C@H](NC(=O)[C@H](C(C)C)N(C)C(=O)N(C)C1(C)COC1)C(=O)N1CCC[C@H](N1)C(=O)OCC(C)(C)C2` [Compound A527], the IC50 in test [1], in test [2] and in test [3] (read-out: KRAS G12V FRET IC50) was 10 to 100 nM in each case.

Consider `CCn1c(-c2cccnc2[C@H](C)OC)c2c3cc(ccc31)-c1csc(n1)C[C@H](NC(=O)[C@H](C(C)C)N(C)C(=O)N1C[C@@H](C)N(C)C[C@@H]1C)C(=O)N1CCC[C@H](N1)C(=O)OCC(C)(C)C2` [Compound A292], for which the results for the IC50 in test [1], in test [3] (read-out: KRAS G12V FRET IC50) and in test [4] were 10 to 100 nM, 10 to 100 nM and < 10 nM, respectively.

Take `CCn1c(-c2cccnc2[C@H](C)OC)c2c3cc(ccc31)-c1cc(O)cc(c1)C[C@H](NC(=O)[C@@H](C(C)C)N(C)C(C)=O)C(=O)N1CCC[C@H](N1)C(=O)OCC(C)(C)C2` [Compound A256]: the IC50 in test [1] and in test [2] was 10 to 100 nM each time.

Regarding `CCn1c(-c2cccnc2[C@H](C)OC)c2c3cc(ccc31)-c1csc(n1)C[C@H](NC(=O)[C@H](C(C)C)N(C)C(=O)N1CC(N3CCOCC3)C1)C(=O)N1CCC[C@H](N1)C(=O)OCC(C)(C)C2` [Compound A338], the IC50 in test [1] is 10 to 100 nM; in test [2] it was 10 to 100 nM; in test [3] (read-out: KRAS G12V FRET IC50), 10 to 100 nM; in test [4] it was < 10 nM.

`CCn1c(-c2cnccc2COC)c2c3cc(ccc31)-c1cc(O)cc(c1)C[C@H](NC(=O)[C@H](C(C)C)N(C)C(=O)N1CCNCC1)C(=O)N1CCC[C@H](N1)C(=O)OCC(C)(C)C2` [Compound A255]: the IC50 in test [1] is 10 to 100 nM; in test [4], < 10 nM.

Regarding `CCn1c(-c2cccnc2[C@H](C)OC)c2c3cc(ccc31)-c1csc(n1)C[C@H](NC(=O)[C@H](C(C)C)N(C)C(=O)N1C[C@H](C)N(C)C[C@H]1C)C(=O)N1CCC[C@H](N1)C(=O)OCC(C)(C)C2` [Compound A300], the IC50 in test [1], in test [2] and in test [3] (read-out: KRAS G12V FRET IC50) was 10 to 100 nM in each case.

For the compound `CCn1c(-c2cccnc2[C@H](C)OC)c2c3cc(ccc31)-c1cc(O)cc(c1)C[C@H](NC(=O)[C@H](C(C)C)N(C)C(=O)C1CC(=O)N(C3CC3)C1)C(=O)N1CCC[C@H](N1)C(=O)OCC(C)(C)C2` (stereo partly shown) [Compound A252], the IC50 in test [4] is < 10 nM.

`CCn1c(-c2cccnc2[C@H](C)OC)c2c3cc(ccc31)-c1csc(n1)C[C@H](NC(=O)[C@H](C(C)C)N(C)C(=O)N1CC(N3CCC3)C1)C(=O)N1CCC[C@H](N1)C(=O)OCC(C)(C)C2` [Compound A295]: the IC50 in test [1], in test [2] and in test [3] (read-out: KRAS G12V FRET IC50) was 10 to 100 nM throughout.

With `CCn1c(-c2cccnc2[C@H](C)OC)c2c3cc(ccc31)-c1csc(n1)C[C@H](NC(=O)[C@H](C(C)C)N(C)C(=O)C1COC1)C(=O)N1CCC[C@H](N1)C(=O)OCC(C)(C)C2` [Compound A245], the IC50 in test [3] was 10 to 100 nM.
